Data as given in the NIST ThermoML archive (doi:10.1016/j.jct.2014.10.001).

Test: xn = mol fraction of the nth substance listed
Details: Gas, Buoyancy - hydrostatic balance with magnetic suspension - one sinker

FCC(F)(F)F [1,1,1,2-tetrafluoroethane] + CCC
Details	mass density [kg/m3]
278.16 K, 230.77 kPa, x1 = 0.7989	9.5443
278.19 K, 442.42 kPa, x1 = 0.2391	12.1807
278.2 K, 102.16 kPa, x1 = 0.2391	2.6113
278.2 K, 233.61 kPa, x1 = 0.2391	6.1346
278.2 K, 514.55 kPa, x1 = 0.2391	14.4261
278.21 K, 366.56 kPa, x1 = 0.2391	9.9124
283.13 K, 211.19 kPa, x1 = 0.7822	8.4187
283.13 K, 329.43 kPa, x1 = 0.7822	13.5211
283.13 K, 459.52 kPa, x1 = 0.7822	19.5449
283.14 K, 311.18 kPa, x1 = 0.5401	10.6211
283.14 K, 501.49 kPa, x1 = 0.5401	17.8976
283.15 K, 101.13 kPa, x1 = 0.5401	3.3055
283.15 K, 102.6 kPa, x1 = 0.7822	3.9912
283.15 K, 120.94 kPa, x1 = 0.6201	4.2161
283.15 K, 198.01 kPa, x1 = 0.6201	7.0141
283.15 K, 210.93 kPa, x1 = 0.5401	7.0468
283.15 K, 416.97 kPa, x1 = 0.5401	14.5789
283.15 K, 602.24 kPa, x1 = 0.5401	22.0672
283.16 K, 415.7 kPa, x1 = 0.6201	15.476
283.16 K, 514.53 kPa, x1 = 0.6201	19.6465
283.17 K, 114.18 kPa, x1 = 0.2391	2.8713
283.17 K, 457.55 kPa, x1 = 0.2391	12.3388
283.17 K, 636.31 kPa, x1 = 0.2391	17.9209
283.18 K, 185.02 kPa, x1 = 0.2391	4.7134
283.18 K, 298.86 kPa, x1 = 0.2391	7.7872
283.18 K, 383.01 kPa, x1 = 0.2391	10.158
288.1 K, 100.89 kPa, x1 = 0.7822	3.85
288.12 K, 214.43 kPa, x1 = 0.7822	8.3795
288.12 K, 325.43 kPa, x1 = 0.7822	13.0428
288.12 K, 552.55 kPa, x1 = 0.7822	23.4956
288.12 K, 552.56 kPa, x1 = 0.7822	23.4963
288.12 K, 709.34 kPa, x1 = 0.5401	26.0161
288.13 K, 102.08 kPa, x1 = 0.5401	3.2763
288.13 K, 317.7 kPa, x1 = 0.5401	10.6307
288.13 K, 424.11 kPa, x1 = 0.5401	14.5146
288.13 K, 446.77 kPa, x1 = 0.6201	16.3715
288.13 K, 448.02 kPa, x1 = 0.7822	18.5148
288.13 K, 514.46 kPa, x1 = 0.5401	17.9692
288.13 K, 613.19 kPa, x1 = 0.5401	21.9339
288.14 K, 209.2 kPa, x1 = 0.5401	6.8504
288.14 K, 232.81 kPa, x1 = 0.6201	8.1461
288.14 K, 332.05 kPa, x1 = 0.6201	11.8593
288.15 K, 122.39 kPa, x1 = 0.6201	4.191
288.15 K, 553.06 kPa, x1 = 0.6201	20.7897
288.43 K, 753.42 kPa, x1 = 0.2391	21.238
288.45 K, 459.95 kPa, x1 = 0.2391	12.1079
288.45 K, 680.21 kPa, x1 = 0.2391	18.823
288.46 K, 121.21 kPa, x1 = 0.2391	2.9907
288.46 K, 302.44 kPa, x1 = 0.2391	7.7138
288.46 K, 384.07 kPa, x1 = 0.2391	9.9536
288.46 K, 571.46 kPa, x1 = 0.2391	15.4131
288.47 K, 209.6 kPa, x1 = 0.2391	5.253
293.14 K, 105.81 kPa, x1 = 0.7822	3.9639
293.15 K, 425.23 kPa, x1 = 0.7822	17.0517
293.15 K, 454.02 kPa, x1 = 0.5401	15.2811
293.15 K, 540.93 kPa, x1 = 0.7822	22.3179
293.15 K, 558.53 kPa, x1 = 0.5401	19.2207
293.15 K, 637.77 kPa, x1 = 0.7822	27.0005
293.15 K, 758.84 kPa, x1 = 0.5401	27.3827
293.15 K, 856.96 kPa, x1 = 0.5401	31.7378
293.16 K, 103.22 kPa, x1 = 0.5401	3.2534
293.16 K, 213.45 kPa, x1 = 0.7822	8.1673
293.16 K, 216.96 kPa, x1 = 0.5401	6.9744
293.16 K, 311.55 kPa, x1 = 0.7822	12.1753
293.16 K, 328.59 kPa, x1 = 0.5401	10.787
293.16 K, 662.93 kPa, x1 = 0.5401	23.3629
293.17 K, 427.29 kPa, x1 = 0.6201	15.2346
293.17 K, 611.78 kPa, x1 = 0.6201	22.7331
293.18 K, 124.6 kPa, x1 = 0.6201	4.1917
293.18 K, 229.76 kPa, x1 = 0.6201	7.8762
293.18 K, 328.76 kPa, x1 = 0.6201	11.4874
293.18 K, 525.37 kPa, x1 = 0.6201	19.1338
293.19 K, 728.09 kPa, x1 = 0.6201	27.8461
